From the supplement of paper PMC11208160 come the findings set out here.
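Also: IS621 bridge recombinase in Escherichia coli cells against a fixed T5 target plasmid.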

The series in a line: recombinant UMI read abundance after kanamycin selection (control-corrected) (log10(CPM+1)); higher = more efficient recombination; extreme values may be limits of the assay; sequences stand for … in AGTGCAGAGAAAATCGGCCAGTTTTCTCTGCCTGCAGTCCGCATGCCGTGGGACCCCTTGGGTTCTAACCTGTTGCCTAGATTTATGCAGCGGACTGCCTTTCTCCCAAAGTGATAAACCGG…AGGTTGGTTTCACT; site = the 11-nt donor. Put shortly:
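Sequenced counts of recombinant UMIs were turned into CPM, averaged across replicates and scaled with control-derived factors. The reported figure is log10(CPM+1). Those UMIs, each 12 nt long, tagged donor and donor-binding-loop pairs on a plasmid with a promoterless kanamycin gene, screened as a pool in Escherichia coli with IPTG (0.07 mM) plus kanamycin or without selection.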
In the case of “TGGACTACATGGACCGGTTTTCCCGGTAATCCGTATTTGAC (site GGGACTACTGT)”, the “recombinant UMI read abundance (log10)” value stood at 0.

Turning to “TGGACTACATGGACCGGTTTTCCCGGTAATCCGTATTTGAC (site TGGACTACTGT)”, the “recombinant UMI read abundance (log10)” value stood at 1.55.

On to “TGGACTCCATGGACCGGTTTTCCCGGTAATCCGTATTTGTT (site CGGAATCCTAA)”, for which the “recombinant UMI read abundance (log10)” value turned out to be 0.

Consider “TGGACTCCATGGACCGGTTTTCCCGGTAATCCGTATTTGTT (site TGGACTCCTAA)”, for which the “recombinant UMI read abundance (log10)” value was found to be 0.214.

On to “TGGAGCTCATGGACCGGTTTTCCCGGTAATCCGTATTTGCG (site TGGAGCTCTCG)”, for which the “recombinant UMI read abundance (log10)” value stood at 2.13.

For the sequence “TGGATACCATGGACCGGTTTTCCCGGTAATCCGTATTTGCG (site TGGATACCTCG)”, the “recombinant UMI read abundance (log10)” value was 0.

With “TGGCCTTCATGGACCGGTTTTCCCGGTAATCCGTATTTGGT (site TAGCCTTCTAC)”, the “recombinant UMI read abundance (log10)” value amounted to 0.

With “TGGCCTTCATGGACCGGTTTTCCCGGTAATCCGTATTTGGT (site TCGCCTTCTAC)”, the “recombinant UMI read abundance (log10)” value worked out at 1.02.

As to “TGGCCTTCATGGACCGGTTTTCCCGGTAATCCGTATTTGGT (site TGGCCTTCTAC)”, the “recombinant UMI read abundance (log10)” value was 0.00327.

On to “TGGCCTTCATGGACCGGTTTTCCCGGTAATCCGTATTTGGT (site TTGCCTTCTAC)”, for which the “recombinant UMI read abundance (log10)” value came to 0.00662.

As to “TGGCTGCCATGGACCGGTTTTCCCGGTAATCCGTATTTGGT (site TGGCTGCCTAC)”, the “recombinant UMI read abundance (log10)” value came out at 0.0264.

Turning to “TGGGAGTCATGGACCGGTTTTCCCGGTAATCCGTATTTGCC (site AGGGAGTCTGG)”, the “recombinant UMI read abundance (log10)” value was found to be 0.

In the case of “TGGGAGTCATGGACCGGTTTTCCCGGTAATCCGTATTTGCC (site CGGGAGTCTGG)”, the “recombinant UMI read abundance (log10)” value was found to be 0.

“TGGGAGTCATGGACCGGTTTTCCCGGTAATCCGTATTTGCC (site GGGGAGTCTGG)”: the “recombinant UMI read abundance (log10)” value turned out to be 0.0303.

Regarding “TGGGAGTCATGGACCGGTTTTCCCGGTAATCCGTATTTGCC (site TGGGAGTCTGG)”, the “recombinant UMI read abundance (log10)” value is 2.34.

Regarding “TGGGGACCATGGACCGGTTTTCCCGGTAATCCGTATTTGCG (site TGGGGACCTCG)”, the “recombinant UMI read abundance (log10)” value turned out to be 0.00873.

Turning to “TGGGGTACATGGACCGGTTTTCCCGGTAATCCGTATTTGGG (site TGGGGTACTCC)”, the “recombinant UMI read abundance (log10)” value is 0.0151.

Turning to “TGGGTACCATGGACCGGTTTTCCCGGTAATCCGTATTTGTT (site TGGGTACCTAA)”, the “recombinant UMI read abundance (log10)” value was 0.0105.

“TGGGTATCATGGACCGGTTTTCCCGGTAATCCGTATTTGCA (site TGGGTATCTTG)”: the “recombinant UMI read abundance (log10)” value came out at 1.83.

Regarding “TGGGTCCCATGGACCGGTTTTCCCGGTAATCCGTATTTGGT (site TGGGTCCCTAC)”, the “recombinant UMI read abundance (log10)” value was found to be 0.00844.

“TGGTAGGCATGGACCGGTTTTCCCGGTAATCCGTATTTGGT (site TGATAGGCTAC)”: the “recombinant UMI read abundance (log10)” value was 0.0183.

For the sequence “TGGTAGGCATGGACCGGTTTTCCCGGTAATCCGTATTTGGT (site TGCTAGGCTAC)”, the “recombinant UMI read abundance (log10)” value amounted to 0.00286.

Regarding “TGGTAGGCATGGACCGGTTTTCCCGGTAATCCGTATTTGGT (site TGGTAGGCTAC)”, the “recombinant UMI read abundance (log10)” value turned out to be 0.848.

Take “TGGTAGGCATGGACCGGTTTTCCCGGTAATCCGTATTTGGT (site TGTTAGGCTAC)”: the “recombinant UMI read abundance (log10)” value is 0.307.

Consider “TGGTGATCATGGACCGGTTTTCCCGGTAATCCGTATTTGGG (site TGGTGATCTCC)”, for which the “recombinant UMI read abundance (log10)” value was 0.238.

“TGGTGGACATGGACCGGTTTTCCCGGTAATCCGTATTTGTT (site TGGTGGACTAA)”: the “recombinant UMI read abundance (log10)” value is 0.734.

For the sequence “TGGTTATCATGGACCGGTTTTCCCGGTAATCCGTATTTGGT (site TGGTTATCTAC)”, the “recombinant UMI read abundance (log10)” value amounted to 1.78.

As for “TGGTTCGCATGGACCGGTTTTCCCGGTAATCCGTATTTGGA (site TGGTTCGCTTC)”, the “recombinant UMI read abundance (log10)” value is 0.00761.

With “TGGTTTCCATGGACCGGTTTTCCCGGTAATCCGTATTTGCA (site TGGTTTCCTTG)”, the “recombinant UMI read abundance (log10)” value came to 0.

“TGTAAGACATGGACCGGTTTTCCCGGTAATCCGTATTTGCG (site TGTAAGACTCG)”: the “recombinant UMI read abundance (log10)” value is 0.934.

As to “TGTAAGCCATGGACCGGTTTTCCCGGTAATCCGTATTTGAC (site TGTAAGCCTGT)”, the “recombinant UMI read abundance (log10)” value is 0.

For the sequence “TGTACACCATGGACCGGTTTTCCCGGTAATCCGTATTTGCC (site TGTACACCTGA)”, the “recombinant UMI read abundance (log10)” value came out at 0.

In the case of “TGTACACCATGGACCGGTTTTCCCGGTAATCCGTATTTGCC (site TGTACACCTGC)”, the “recombinant UMI read abundance (log10)” value stood at 0.

Regarding “TGTACACCATGGACCGGTTTTCCCGGTAATCCGTATTTGCC (site TGTACACCTGG)”, the “recombinant UMI read abundance (log10)” value was 0.

As to “TGTACACCATGGACCGGTTTTCCCGGTAATCCGTATTTGCC (site TGTACACCTGT)”, the “recombinant UMI read abundance (log10)” value was determined as 0.

Turning to “TGTACAGCATGGACCGGTTTTCCCGGTAATCCGTATTTGAA (site TGTACAGCTTT)”, the “recombinant UMI read abundance (log10)” value came to 0.369.

In the case of “TGTACCACATGGACCGGTTTTCCCGGTAATCCGTATTTGTA (site TGTACCACTTA)”, the “recombinant UMI read abundance (log10)” value was determined as 0.131.

As for “TGTAGACCATGGACCGGTTTTCCCGGTAATCCGTATTTGAC (site TGTAAACCTGT)”, the “recombinant UMI read abundance (log10)” value turned out to be 0.

In the case of “TGTAGACCATGGACCGGTTTTCCCGGTAATCCGTATTTGAC (site TGTACACCTGT)”, the “recombinant UMI read abundance (log10)” value worked out at 0.

Take “TGTAGACCATGGACCGGTTTTCCCGGTAATCCGTATTTGAC (site TGTAGACCTGT)”: the “recombinant UMI read abundance (log10)” value stood at 0.

On to “TGTAGACCATGGACCGGTTTTCCCGGTAATCCGTATTTGAC (site TGTATACCTGT)”, for which the “recombinant UMI read abundance (log10)” value is 0.

As to “TGTAGGTCATGGACCGGTTTTCCCGGTAATCCGTATTTGAA (site TGTAGGTCTTT)”, the “recombinant UMI read abundance (log10)” value amounted to 0.238.

For “TGTAGGTCATGGACCGGTTTTCCCGGTAATCCGTATTTGGT (site TGTAGGTCTAC)”, the “recombinant UMI read abundance (log10)” value turned out to be 0.355.

For the sequence “TGTATACCATGGACCGGTTTTCCCGGTAATCCGTATTTGAC (site TGTAAACCTGT)”, the “recombinant UMI read abundance (log10)” value was determined as 0.

Take “TGTATACCATGGACCGGTTTTCCCGGTAATCCGTATTTGAC (site TGTACACCTGT)”: the “recombinant UMI read abundance (log10)” value was 0.

“TGTATACCATGGACCGGTTTTCCCGGTAATCCGTATTTGAC (site TGTAGACCTGT)”: the “recombinant UMI read abundance (log10)” value was 0.

For the sequence “TGTATACCATGGACCGGTTTTCCCGGTAATCCGTATTTGAC (site TGTATACCTGT)”, the “recombinant UMI read abundance (log10)” value is 0.

Take “TGTCAGCCATGGACCGGTTTTCCCGGTAATCCGTATTTGGC (site TGTCAGCCTGC)”: the “recombinant UMI read abundance (log10)” value was determined as 0.0152.

With “TGTCCACCATGGACCGGTTTTCCCGGTAATCCGTATTTGAC (site TGTACACCTGT)”, the “recombinant UMI read abundance (log10)” value came out at 0.

With “TGTCCACCATGGACCGGTTTTCCCGGTAATCCGTATTTGAC (site TGTCCACCTGT)”, the “recombinant UMI read abundance (log10)” value was determined as 0.

For “TGTCCACCATGGACCGGTTTTCCCGGTAATCCGTATTTGAC (site TGTGCACCTGT)”, the “recombinant UMI read abundance (log10)” value worked out at 0.

With “TGTCCACCATGGACCGGTTTTCCCGGTAATCCGTATTTGAC (site TGTTCACCTGT)”, the “recombinant UMI read abundance (log10)” value came to 0.
